Measurements published in a melting point compilation (Tetko et al.; mined from patent text by program, amines drawn as free bases though some values may be those of a salt).

First: CC(=O)NC1CCN(c2cccc(C)n2)CC1
Second: CC(=O)NCCO[C@H]1COc2ccc3cnn(C[C@@H](C)O)c3c2C1
The melting point of the first is lower: 145 to 147 °C for the first, 165 to 166 °C for the second.

First: Cc1cc(-n2nc(C(N)=O)nc2-c2ccccc2)ccc1F
Second: CC(C)c1nc(-c2ccccc2)n(-c2ccc(F)cc2)c1C=C(Br)Br
The melting point of the first is lower: 123 to 126 °C for the first, 164 to 165 °C for the second.

First: O=c1[nH]c2ccccc2n1CCCN1CCC(c2noc3cc(F)ccc23)CC1
Second: CC(C)(O)c1ccc(-c2cnc3c(n2)N(CCC2CCOCC2)CC(=O)N3)cc1
The melting point of the first is lower: 175 to 177 °C for the first, 210 to 212 °C for the second.

Compared with CN(CCCO)CC1(SSC2(CN(C)CCCO)CCCCC2)CCCCC1, CCCCNC(=O)[C@H](C)C[C@H](O)[C@H](CC1CCCCC1)NC(=O)[C@H](Cc1cscn1)NC(=O)[C@@H](CC(=O)N1CCOCC1)Cc1ccc(OC)cc1 is higher in melting point: 65 to 66 °C for the first, 130 to 132 °C for the second.

Compared with CCOC(=O)C1=C(C)Nc2ccnc(OC(C)C)c2C1c1ccc(C(F)(F)F)cc1 (configuration not stated), COC(=O)C1=C(C)NC(C)=C(C(=O)OCC2CCC(=O)O2)C1c1ccccc1[N+](=O)[O-] (configuration not stated) is higher in melting point: 117 to 120 °C for the first, 132 to 134 °C for the second.

COC(=O)C1COc2c(C(=O)c3ccccc3)cc(C)cc21 (configuration not stated) and CCOP(=O)(CC(=O)O)CC(Cc1ccccc1)NS(=O)(=O)c1ccc(C)cc1 (configuration not stated) cannot be ordered by melting point: 110 to 111 °C for the first, 110 to 112 °C for the second.

First: Nc1nc(NCCC2CCCCC2)nc2c1ncn2C1OC(CO)C(O)C1O (configuration not stated)
Second: Nc1cc(OCC2CC2)c(C(=O)NC2CN3CCC2CC3)cc1Cl (configuration not stated)
The melting point of the first is lower: 142 to 145 °C for the first, 183 to 185 °C for the second.

Compared with Oc1cc2c(-c3ccc(Cl)cc3)csc2c(Cl)c1Cl, Cc1[nH]cc2c1-c1ccc(Cl)cc1C(c1ccccc1Cl)=NC2 is higher in melting point: 174 to 176 °C for the first, 219 to 222 °C for the second.

O=C1NC(=S)SC1=Cc1ccc2c(c1)N(Cc1cccc(-c3ccncc3)c1)C(=O)CO2 and CCc1ccc(Nc2nc3cc(NC(=O)c4ccc([N+](=O)[O-])cc4Cl)ccc3o2)cc1 cannot be ordered by melting point: 297 to 299 °C for the first, over 250 °C for the second.

First: CC(=O)NCc1ccc(C(=O)CBr)s1
Second: CCC(=O)Nc1cc(-c2sc(C(C)=O)nc2-c2cccc(C)c2)ccn1
The melting point of the first is higher: 129 to 131 °C for the first, 121 to 123 °C for the second.

Compared with CCOC(=O)C1CCC2(CCN(S(=O)(=O)c3ccc(C)cc3)c3ccccc3C2)C1=O (configuration not stated), COc1cc2c(c(N3CCN(C)CC3)c1)OC(C(=O)Nc1ccc(N3CCN(C)CC3)cc1)CC2 (configuration not stated) is higher in melting point: 114 to 116 °C for the first, 180 to 190 °C for the second.

Compared with CCS(=O)(=O)c1nsc(NC(=O)NC)c1C(N)=O, C[C@@H]1CN(C(=O)[C@@](C)(O)C(F)(F)F)[C@@H](C)CN1S(=O)(=O)c1cccs1 is lower in melting point: 219 to 220 °C for the first, 116 to 117 °C for the second.

First: O=C(NCCO)c1cccc(-c2cccc3oc(Cc4cccc(C(F)(F)F)c4)cc23)c1
Second: CCOC(=O)Nc1cc(COC(=O)Nc2ccc(N(CCCl)CCCl)cc2)cc(Nc2c3ccccc3nc3ccccc23)c1
The melting point of the first is lower: 135 to 136 °C for the first, 178 to 182 °C for the second.

Compared with CC(=O)N(C)c1cc([N+](=O)[O-])cc([N+](=O)[O-])c1, COc1ccc(-c2ccc(OC)cc2[N+](=O)[O-])cc1 is lower in melting point: 134 to 136 °C for the first, 122 to 124 °C for the second.

First: CN1CCCC1=NC(=O)Nc1cc(Cl)ccc1Cl
Second: O=C1NCCc2[nH]c3ccccc3c21
The melting point of the first is lower: 148 to 150 °C for the first, 212 to 215 °C for the second.

Compared with COC(=O)c1cc(-n2cnc(Br)c2)c(C(F)(F)F)cc1N, CN(C(=O)Nc1nc(OCC(F)(F)F)cc(OCC(F)(F)F)n1)c1ccc(C(F)(F)F)s1 is lower in melting point: 163 to 165 °C for the first, 99 to 101 °C for the second.

First: c1cc(C2CCCCC2)ccc1N=C1NCCCN1
Second: Nc1nc2[nH]c(CCC#Cc3ccc(C(=O)N[C@@H](CCC(=O)O)C(=O)O)s3)cc2c(=O)[nH]1
The melting point of the first is lower: 179 to 181 °C for the first, 196 to 197 °C for the second.

First: Cc1nc2c(Cl)cc(F)c([N+](=O)[O-])c2s1
Second: CC(C)[C@H](NC(=O)OCc1ccc2ccccc2n1)C(=O)N[C@@H](Cc1ccccc1)C[C@H](O)[C@H](Cc1ccccc1)NC(=O)OCc1cccnc1
The melting point of the first is lower: 130 to 132 °C for the first, 141 to 143 °C for the second.

Work on COC(=O)[C@H](Cc1ccc(OCCNC(=O)OC(C)(C)C)cc1)NC(=O)OCc1ccccc1 yielded a melting point of 89 to 91 °C.
